Test system: anti-CD3-activated T cells
Assay: Microarray gene expression, T cells activated by anti-CD3 antibody
Type: cell-based, human
Details: anti-CD3-activated T cells; for Fold change COL6A3: 201438_at; for Fold change CTSL: 202087_s_at; for Fold change IGF2 /// INS-IGF2: 202409_at; for Fold change IGFBP2: 202718_at; for Fold change SERPINA1: 202833_s_at; for Fold change S100A8: 202917_s_at; for Fold change MET: 203510_at; for Fold change MMP9: 203936_s_at; for Fold change LOC645619 /// LOC731007: 204347_at; for Fold change AK3L1: 204348_s_at; for Fold change SLC7A7: 204588_s_at; for Fold change SERPINB2: 204614_at; for Fold change TTK: 204822_at; for Fold change GNG4: 205184_at; for Fold change ADAMDEC1: 206134_at; for Fold change PLA2G7: 206214_at; for Fold change HCK: 208018_s_at
Procedure: CD3 positive T cells were extracted from a healthy donor according to a standard protocol, and seeded in T cell medium including RPMI, 10% fetal calf serum, sodium pyruvate, L-Glutamine, and Penicillin/Streptomycin. Following an overnight incubation with medium, the cells were treated by incubating for 2 hours at 37° C. with amino-phenyl-acetic acid octadec-(Z)-9-enyl ester at a concentration of 10 micrograms/ml in a final volume of 10 ml in T-cell medium with or without 0.05% ethanol. After incubation, half the cells from each treatment were centrifuged and 2 ml of Tri-reagent (Sigma) were added to the pellet. The other half of the cells from each treatment were transferred to anti-CD3 antibody coated 24 well plates for an overnight incubation at 37° C. Coating plates with an anti-CD3 antibody was carried out by incubating with 2 micrograms/ml of OKT3 anti-CD3 antibody overnight at 4° C., washing three times with PBS and blocking with filtered 1% Bovine Serum Albumin for 1 hour. After activation with anti-CD3 antibody, cells were centrifuged and 2 ml of Tri-reagent were added to the pellet.
RNA was extracted from unstimulated cells and from cells activated with anti-CD3 according to standard protocols and used for hybridization with a Human Genome U133A 2.0 (Affymetrix, Catalogue number 900468), according to the manufacturer's instructions. The results of the hybridization were read by a GeneChip scanner 3000 (Affymetrix) and analyzed by QuantArray (GSI lumonics).
The effects of amino-phenyl-acetic acid octadec-(Z)-9-enyl ester in ethanol solution or in an aqueous vehicle (hereinafter termed “in PBS”) on gene expression in unstimulated T cells and T cells activated by anti-CD3 antibody were compared by microarray analysis.

[1] = in ethanol solution vs untreated

CCCCCCCC/C=C\CCCCCCCCOC(=O)C(N)c1ccccc1 (stereo not shown) [amino-phenyl-acetic acid octadec-(Z)-9-enyl ester]
Fold change IL1B (39402_at, in ethanol solution vs untreated): 2.03
Fold change THBS1 (201109_s_at, in ethanol solution vs untreated): 1.94
Fold Change EIF5A (201123_s_at, in ethanol solution vs in PBS): −1.97
Fold change COL6A3 (in ethanol solution vs in PBS): −2.16
Fold change COL6A3 [1]: −2.06
Fold change BNIP3 (201848_s_at, in ethanol solution vs in PBS): −3.39
Fold change BNIP3 (201848_s_at, in ethanol solution vs untreated): −2.99
Fold change BNIP3 (201849_at, in ethanol solution vs in PBS): −3.34
Fold change BNIP3 (201849_at, in ethanol solution vs untreated): −3.24
Fold change CTSL (in ethanol solution vs in PBS): 2.18
Fold change CTSL [1]: 2.30
Fold change IGF2 /// INS-IGF2 (in ethanol solution vs in PBS): −2.42
Fold change IGF2 /// INS-IGF2 [1]: −2.17
Fold change CYP1B1 (202436_s_at, in ethanol solution vs untreated): 2.02
Fold change IGFBP2 (in ethanol solution vs in PBS): −6.02
Fold change IGFBP2 [1]: −5.13
Fold change SERPINA1 (in ethanol solution vs in PBS): 1.97
Fold change SERPINA1 [1]: 2.12
Fold change S100A8 (in ethanol solution vs in PBS): 2.11
Fold change S100A8 [1]: 2.24
Fold Change GBE1 (203282_at, in ethanol solution vs in PBS): −1.92
Fold change LMAN1 (203294_s_at, in PBS vs untreated): 1.91
Fold Change ABCA1 (203504_s_at, in ethanol solution vs in PBS): −1.90
Fold change MET (in ethanol solution vs in PBS): 2.76
Fold change MET [1]: 2.35
Fold change DFNA5 (203695_s_at, in ethanol solution vs untreated): 1.92
Fold change MMP9 (in ethanol solution vs in PBS): 2.67
Fold change MMP9 [1]: 2.74
Fold Change CA12 (203963_at, in ethanol solution vs in PBS): 2.02
Fold Change CA12 (203963_at, in ethanol solution vs untreated): 1.91
Fold Change CDC6 (203967_at, in ethanol solution vs in PBS): −2.03
Fold change FCER1G (204232_at, in ethanol solution vs untreated): 1.94
Fold change LOC645619 /// LOC731007 (in ethanol solution vs in PBS): −2.52
Fold change LOC645619 /// LOC731007 [1]: −2.25
Fold change AK3L1 (in ethanol solution vs in PBS): −3.93
Fold change AK3L1 [1]: −3.14
Fold change MMP1 (204475_at, in ethanol solution vs untreated): 2.32
Fold Change CA12 (204508_s_at, in ethanol solution vs in PBS): 2.09
Fold change ABCG1 (204567_s_at, in ethanol solution vs untreated): −2.12
Fold change SLC7A7 (in ethanol solution vs in PBS): 2.05
Fold change SLC7A7 [1]: 2.07
Fold change EXO1 (204603_at, in ethanol solution vs untreated): −2.25
Fold change SERPINB2 (in ethanol solution vs in PBS): 2.60
Fold change SERPINB2 [1]: 3.14
Fold change TTK (in ethanol solution vs in PBS): −2.04
Fold change TTK [1]: −2.40
Fold change DOCK4 (205003_at, in ethanol solution vs untreated): 2.33
Fold change RAD51 (205024_s_at, in ethanol solution vs untreated): −2.09
Fold change IL1B (205067_at, in ethanol solution vs untreated): 2.03
Fold change GNG4 (in ethanol solution vs in PBS): 2.04
Fold change GNG4 [1]: 2.23
Fold change IL6 (205207_at, in ethanol solution vs untreated): 1.95
Fold change probeset 205296_at (205296_at, in ethanol solution vs untreated): −2.02
Fold Change WDR76 (205519_at, in ethanol solution vs in PBS): −2.42
Fold change AQP9 (205568_at, in ethanol solution vs untreated): 2.27
Fold change ZC3H11A (205787_x_at, in PBS vs untreated): 1.95
Fold change MT3 (205970_at, in ethanol solution vs untreated): −2.05
Fold change TNFAIP6 (206025_s_at, in ethanol solution vs untreated): 1.92
Fold change SFRS6 (206108_s_at, in PBS vs untreated): 2.16
Fold change ADAMDEC1 (in ethanol solution vs in PBS): 2.41
Fold change ADAMDEC1 [1]: 2.87
Fold change PLA2G7 (in ethanol solution vs in PBS): 2.12
Fold change PLA2G7 [1]: 3.44
Fold change SERPINB7 (206421_s_at, in ethanol solution vs untreated): 1.99
Fold change IL24 (206569_at, in ethanol solution vs untreated): 1.97
Fold change CSF3 (207442_at, in ethanol solution vs untreated): 2.14
Fold Change P4HA1 (207543_s_at, in ethanol solution vs in PBS): −2.20
Fold change HCK (in ethanol solution vs in PBS): 1.93
Fold change HCK [1]: 2.14
Fold change CASP2 (208050_s_at, in PBS vs untreated): 2.04
